Experimental findings from patent publication US20240109900A1, “AZABICYCLIC SHP2 INHIBITORS” (IRBM S.P.A., priority 2021, published 2024) are described below.

The target in assay [1] is SHP-2 enzyme (Met1-Leu525) (Homo sapiens (Human), UniProt Q06124). Kind of assay: SHP2 inhibition enzymatic assay. The following applies: 0.5 nM SHP-2 activated by 500 nM IRS1 peptide, 75 μM DiFMUP substrate; read-out: SHP2wt-IC50. In kind it is biochemical. The procedure, abridged: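 SHP-2 (Met1-Leu525), 0.5 nM, activated with 500 nM IRS1 bis-phosphopeptide, preincubated 30 min with compounds in HEPES pH 7.2 buffer with 5 mM DTT. 75 μM DiFMUP added for 30 min at room temperature, stopped with bpV; fluorescence read. IC50 from four-parameter logistic fit of % inhibition.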

Assay [2] has as its system ERK phosphorylation in KYSE-520 cells. The assay is described as follows: Phospho-ERK cellular assay. It is filed as cell-based. The following applies: KYSE-520 cells, 2 h at 37° C., phospho-ERK1/2 (Thr202/Tyr204) TR-FRET, read-out: PERK IC50. In short, it runs like this: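 TR-FRET read-out of ERK1/2 Thr202/Tyr204 phosphorylation was taken after overnight antibody incubation at room temperature. Before that, KYSE-520 cells were treated 2 h at 37 °C with compound dilutions and lysed 30 min. Percent inhibition relative to vehicle and cell-free wells was fitted four-parametrically to give IC50.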
(TR-FRET usually uses a lanthanide donor and a delayed reading to cut background.)

Like-named read-outs stand apart in the source and are kept apart here.

SHP-2 enzyme (Met1-Leu525), sequence (Q06124 1-525): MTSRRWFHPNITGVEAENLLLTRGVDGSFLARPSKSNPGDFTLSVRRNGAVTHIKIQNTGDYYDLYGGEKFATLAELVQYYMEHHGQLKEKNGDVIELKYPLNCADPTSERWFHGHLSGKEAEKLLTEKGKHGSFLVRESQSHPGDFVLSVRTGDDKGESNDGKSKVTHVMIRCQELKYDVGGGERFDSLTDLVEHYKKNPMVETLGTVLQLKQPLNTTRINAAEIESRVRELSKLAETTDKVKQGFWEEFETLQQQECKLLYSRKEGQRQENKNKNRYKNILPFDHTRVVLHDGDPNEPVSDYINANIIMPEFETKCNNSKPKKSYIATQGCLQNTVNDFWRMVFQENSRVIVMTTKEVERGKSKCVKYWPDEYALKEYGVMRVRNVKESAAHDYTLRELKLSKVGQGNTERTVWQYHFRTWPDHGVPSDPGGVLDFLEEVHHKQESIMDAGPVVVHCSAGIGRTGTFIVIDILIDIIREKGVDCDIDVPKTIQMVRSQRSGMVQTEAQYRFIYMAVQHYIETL

The term IC50 denotes the concentration that inhibits the measured activity by half. Consider `Cc1csc(C2(CN)C3CCN(c4cnc5c(-c6cccc7ncccc67)n[nH]c5n4)CC32)n1` (stereo not shown) [Example 88, (7-(4-methylthiazol-2-yl)-3-(3-(quinolin-5-yl)-1H-pyrazolo[3,4-b]pyrazin-6-yl)-3-azabicyclo[4.1.0]heptan-7-yl)methanamine], for which the IC50 was less than 500 nM in assay [1] and less than 1000 nM in assay [2] (Homo sapiens, KYSE-520, 2 h).

`NC[C@]1(c2ccccc2F)[C@@H]2CCN(c3cnc(Sc4ccc(C(N)=O)cc4Cl)cn3)C[C@@H]21` [Example 421, 4-((5-((1S,6R,7R)-7-(aminomethyl)-7-(2-fluorophenyl)-3-azabicyclo[4.1.0]heptan-3-yl)pyrazin-2-yl)thio)-3-chlorobenzamide]: the IC50 was less than 500 nM in assay [1] and less than 1000 nM in assay [2] (Homo sapiens, KYSE-520, 2 h).

In the case of `COc1ccc2ncccc2c1-c1n[nH]c2nc(N3CC[C@@H]4[C@H](C3)[C@@]4(CN)c3cc(C)on3)cnc12` [Example 115, ((1S,6R,7S)-3-(3-(6-methoxyquinolin-5-yl)-1H-pyrazolo[3,4-b]pyrazin-6-yl)-7-(5-methylisoxazol-3-yl)-3-azabicyclo[4.1.0]heptan-7-yl)methanamine], the IC50 in assay [1] was 500 to 3000 nM; in assay [2] (Homo sapiens, KYSE-520, 2 h), less than 1000 nM.

Take `Cc1csc([C@@]2(CN)[C@@H]3CN(c4cnc5c(-c6ccncc6Cl)n[nH]c5n4)C[C@@H]32)n1` [Example 519]: the IC50 in assay [1] was less than 500 nM; in assay [2], less than 1000 nM.

Take `NC[C@]1(c2ccccc2F)[C@@H]2CCN(c3cnc4c(-c5ccc(F)c6ncccc56)c[nH]c4n3)C[C@@H]21` [Example 507, ((1S,6R,7R)-7-(2-fluorophenyl)-3-(7-(8-fluoroquinolin-5-yl)-5H-pyrrolo[2,3-b]pyrazin-3-yl)-3-azabicyclo[4.1.0]heptan-7-yl)methanamine]: the IC50 was less than 500 nM in assay [1] and less than 1000 nM in assay [2] (Homo sapiens, KYSE-520, 2 h).

For the molecule `Cc1c(-c2n[nH]c3nc(N4CC[C@@H]5[C@H](C4)[C@@]5(CN)c4ccccc4F)cnc23)ccn2cnnc12` [Example 211, ((1S,6R,7R)-7-(2-fluorophenyl)-3-(3-(8-methyl-[1,2,4]triazolo[4,3-a]pyridin-7-yl)-1H-pyrazolo[3,4-b]pyrazin-6-yl)-3-azabicyclo[4.1.0]heptan-7-yl)methanamine], the IC50 was less than 500 nM in assay [1] and more than 5000 nM in assay [2] (Homo sapiens, KYSE-520, 2 h).

Take `NC[C@]1(c2ccccc2F)[C@@H]2CCN(c3cnc4c(-c5cc(F)c(O)cc5F)n[nH]c4n3)C[C@@H]21` [Example 354, 4-(6-((1S,6R,7R)-7-(aminomethyl)-7-(2-fluorophenyl)-3-azabicyclo[4.1.0]heptan-3-yl)-1H-pyrazolo[3,4-b]pyrazin-3-yl)-2,5-difluorophenol]: the IC50 is less than 500 nM in assay [1] and less than 1000 nM in assay [2] (Homo sapiens, KYSE-520, 2 h).

Consider `Cc1cc([C@@]2(CN)[C@@H]3CCN(c4cnc5c(-c6ccc(F)c7ncccc67)c[nH]c5n4)C[C@@H]32)no1` [Example 156, ((1S,6R,7S)-3-(7-(8-fluoroquinolin-5-yl)-5H-pyrrolo[2,3-b]pyrazin-3-yl)-7-(5-methylisoxazol-3-yl)-3-azabicyclo[4.1.0]heptan-7-yl)methanamine], for which the IC50 was less than 500 nM in assay [1] and less than 1000 nM in assay [2] (Homo sapiens, KYSE-520, 2 h).

`NCC1(c2ccccc2F)C2CCN(c3cnc4c(-c5cccc6ccsc56)n[nH]c4n3)CC21` (stereo not shown) [Example 4, (3-(3-(benzo[b]thiophen-7-yl)-1H-pyrazolo[3,4-b]pyrazin-6-yl)-7-(2-fluorophenyl)-3-azabicyclo[4.1.0]heptan-7-yl)methanamine]: the IC50 is less than 500 nM in assay [1] and 1000 to 5000 nM in assay [2] (Homo sapiens, KYSE-520, 2 h).

For `Cc1cc(C2(CN)C3CCN(c4cnc5c(-c6ccnc7ccccc67)n[nH]c5n4)CC32)no1` (stereo not shown) [Example 27, (7-(5-methylisoxazol-3-yl)-3-(3-(quinolin-4-yl)-1H-pyrazolo[3,4-b]pyrazin-6-yl)-3-azabicyclo[4.1.0]heptan-7-yl)methanamine], the 50% inhibitory concentration (IC50) was less than 500 nM in assay [1] and less than 1000 nM in assay [2] (Homo sapiens, KYSE-520, 2 h).

With `Cn1cc2c(Cl)c(Sc3cnc(N4CC[C@@H]5[C@H](C4)[C@@]5(CN)c4ccccc4F)cn3)ccc2n1` [Example 427, ((1S,6R,7R)-3-(5-((4-chloro-2-methyl-2H-indazol-5-yl)thio)pyrazin-2-yl)-7-(2-fluorophenyl)-3-azabicyclo[4.1.0]heptan-7-yl)methanamine], the IC50 is less than 500 nM in assay [1] and less than 1000 nM in assay [2] (Homo sapiens, KYSE-520, 2 h).

In the case of `Cc1cc(C2(CN)C3CCN(c4cnc5c(Sc6ccnc7ccsc67)n[nH]c5n4)CC32)no1` (stereo not shown) [Example 54, (7-(5-methylisoxazol-3-yl)-3-(3-(thieno[3,2-b]pyridin-7-ylthio)-1H-pyrazolo[3,4-b]pyrazin-6-yl)-3-azabicyclo[4.1.0]heptan-7-yl)methanamine], the IC50 in assay [1] is less than 500 nM; in assay [2] (Homo sapiens, KYSE-520, 2 h), less than 1000 nM.

On to `NC[C@]1(c2ccccc2F)[C@@H]2CCN(c3cnc(Sc4ccnc5ccccc45)c(N)n3)C[C@@H]21` [Example 524, 6-((1S,6R,7R)-7-(aminomethyl)-7-(2-fluorophenyl)-3-azabicyclo[4.1.0]heptan-3-yl)-3-(quinolin-4-ylthio)pyrazin-2-amine], for which the half-maximal inhibitory concentration (IC50) was less than 500 nM in assay [1] and more than 5000 nM in assay [2] (Homo sapiens, KYSE-520, 2 h).

As for `NC[C@]1(c2ccccc2F)[C@@H]2CCN(c3cnc4c(-c5ccc6ccc(=O)[nH]c6c5)n[nH]c4n3)C[C@@H]21` [Example 231, 7-(6-((1S,6R,7R)-7-(aminomethyl)-7-(2-fluorophenyl)-3-azabicyclo[4.1.0]heptan-3-yl)-1H-pyrazolo[3,4-b]pyrazin-3-yl)quinolin-2(1H)-one], the IC50 is less than 500 nM in assay [1] and less than 1000 nM in assay [2] (Homo sapiens, KYSE-520, 2 h).

On to `NC[C@]1(c2ccccc2F)[C@@H]2CCN(c3cnc4c(-c5ccc6c(c5)CCC(=O)N6)n[nH]c4n3)C[C@@H]21` [Example 238, 6-(6-((1S,6R,7R)-7-(aminomethyl)-7-(2-fluorophenyl)-3-azabicyclo[4.1.0]heptan-3-yl)-1H-pyrazolo[3,4-b]pyrazin-3-yl)-3,4-dihydroquinolin-2(1H)-one], for which the IC50 in assay [1] is less than 500 nM; in assay [2] (Homo sapiens, KYSE-520, 2 h), less than 1000 nM.

In the case of `CC(C)(O)c1ccc(-c2n[nH]c3nc(N4CC[C@@H]5[C@H](C4)[C@@]5(CN)c4ccccc4F)cnc23)c2cccnc12` [Example 137, 2-(5-(6-((1S,6R,7R)-7-(aminomethyl)-7-(2-fluorophenyl)-3-azabicyclo[4.1.0]heptan-3-yl)-1H-pyrazolo[3,4-b]pyrazin-3-yl)quinolin-8-yl)propan-2-ol], the IC50 is less than 500 nM in assay [1] and less than 1000 nM in assay [2] (Homo sapiens, KYSE-520, 2 h).

With `NC[C@]1(c2ccccc2F)[C@@H]2CCN(c3ncc(Sc4ccnc(N)c4Cl)n4cncc34)C[C@@H]21` [Example 135, 4-((8-((1S,6R,7R)-7-(aminomethyl)-7-(2-fluorophenyl)-3-azabicyclo[4.1.0]heptan-3-yl)imidazo[1,5-a]pyrazin-5-yl)thio)-3-chloropyridin-2-amine], the IC50 in assay [1] was more than 3000 nM; in assay [2] (Homo sapiens, KYSE-520, 2 h) it was more than 5000 nM.

For the molecule `NC[C@]1(c2ccccc2F)[C@@H]2CCN(c3cnc(Sc4cccc5ncccc45)cn3)C[C@@H]21` [Example 422, ((1S,6R,7R)-7-(2-fluorophenyl)-3-(5-(quinolin-5-ylthio)pyrazin-2-yl)-3-azabicyclo[4.1.0]heptan-7-yl)methanamine], the IC50 is less than 500 nM in assay [1] and less than 1000 nM in assay [2] (Homo sapiens, KYSE-520, 2 h).

As to `NC[C@]1(c2ccccc2F)[C@@H]2CCN(c3cnc4c(-c5ccnc(-n6cccn6)c5Cl)n[nH]c4n3)C[C@@H]21` [Example 451, ((1S,6R,7R)-3-(3-(3-chloro-2-(1H-pyrazol-1-yl)pyridin-4-yl)-1H-pyrazolo[3,4-b]pyrazin-6-yl)-7-(2-fluorophenyl)-3-azabicyclo[4.1.0]heptan-7-yl)methanamine], the half-inhibitory concentration (IC50) in assay [1] was less than 500 nM; in assay [2] (Homo sapiens, KYSE-520, 2 h), less than 1000 nM.

On to `NC[C@]1(c2ccccc2F)[C@@H]2CCN(c3cnc4c(-c5ccnc6c(F)cccc56)n[nH]c4n3)C[C@@H]21` [Example 132, ((1S,6R,7R)-7-(2-fluorophenyl)-3-(3-(8-fluoroquinolin-4-yl)-1H-pyrazolo[3,4-b]pyrazin-6-yl)-3-azabicyclo[4.1.0]heptan-7-yl)methanamine], for which the IC50 in assay [1] is less than 500 nM; in assay [2] (Homo sapiens, KYSE-520, 2 h), less than 1000 nM.

On to `NC[C@]1(c2ccccc2F)[C@@H]2CCN(c3cnc4c(-c5ccc(-n6cccc6)cc5Cl)n[nH]c4n3)C[C@@H]21` [Example 454, ((1S,6R,7R)-3-(3-(2-chloro-4-(1H-pyrrol-1-yl)phenyl)-1H-pyrazolo[3,4-b]pyrazin-6-yl)-7-(2-fluorophenyl)-3-azabicyclo[4.1.0]heptan-7-yl)methanamine], for which the half-maximal inhibitory concentration (IC50) in assay [1] was less than 500 nM; in assay [2] (Homo sapiens, KYSE-520, 2 h), less than 1000 nM.

On to `NC[C@]1(c2ccccc2F)[C@@H]2CCN(c3cnc4nc(N5CCCc6ncccc65)ccc4n3)C[C@@H]21` [Example 406, ((1S,6R,7R)-3-(6-(3,4-dihydro-1,5-naphthyridin-1(2H)-yl)pyrido[2,3-b]pyrazin-2-yl)-7-(2-fluorophenyl)-3-azabicyclo[4.1.0]heptan-7-yl)methanamine], for which the IC50 was less than 500 nM in assay [1] and less than 1000 nM in assay [2] (Homo sapiens, KYSE-520, 2 h).

On to `NC[C@]1(c2ccccc2F)[C@@H]2CCN(c3cnc4c(-c5ccc6c(=O)n(CCO)ccc6c5F)n[nH]c4n3)C[C@@H]21` [Example 351, 6-(6-((1S,6R,7R)-7-(aminomethyl)-7-(2-fluorophenyl)-3-azabicyclo[4.1.0]heptan-3-yl)-1H-pyrazolo[3,4-b]pyrazin-3-yl)-5-fluoro-2-(2-hydroxyethyl)isoquinolin-1(2H)-one], for which the IC50 was less than 500 nM in assay [1] and less than 1000 nM in assay [2] (Homo sapiens, KYSE-520, 2 h).
